# Laboratory results taken from US11739102B2, “Fused pyrimidine compounds as KRAS inhibitors” (Incyte Corporation, priority 2020, dated 2023).
# Assays:
# [1] = target: KRAS G12C (Homo sapiens, UniProt P01116, G12C); test: GDP-GTP exchange assay (bodipy-GDP/GppNHp, SOS1); type: biochemical; conditions: bodipy-loaded KRAS G12C 2.5 nM, SOS1 150 nM, 2 hours pre-incubation with inhibitor; read-out: G12C_exchange IC50
# Description: The inhibitor potency of the exemplified compounds was determined in a fluorescence based guanine nucleotide exchange assay, which measures the exchange of bodipy-GDP (fluorescently labeled GDP) for GppNHp (Non-hydrolyzable GTP analog) to generate the active state of KRAS in the presence of SOS1 (guanine nucleotide exchange factor). Inhibitors were serially diluted in DMSO and a volume of 0.1 μL was transferred to the wells of a black low volume 384-well plate. 5 μL/well volume of bodipy-loaded KRAS G12C diluted to 5 nM in assay buffer (25 mM Hepes pH 7.5, 50 mM NaCl, 10 mM MgCl2 and 0.01% Brij-35) was added to the plate and pre-incubated with inhibitor for 2 hours at ambient temperature. Appropriate controls (enzyme with no inhibitor or with a G12C inhibitor (AMG-510)) were included on the plate. The exchange was initiated by the addition of a 5 μL/well volume containing 1 mM GppNHp and 300 nM SOS1 in assay buffer. The 10 μL/well reaction concentration of the bodipy-loaded KRAS G12C, GppNHp, and SOS1 were 2.5 nM, 500 uM, and 150 nM, respectively. The reaction plates were incubated at ambient temperature for 2 hours, a time estimated for complete GDP-GTP exchange in the absence of inhibitor. For the KRAS G12D and G12V mutants, similar guanine nucleotide exchange assays were used with 2.5 nM as final concentration for the bodipy loaded KRAS proteins and with 4 hours and 3 hours incubation after adding GppNHp-SOS1 mixture for G12D and G12V respectively. A cyclic peptide described to selectively bind G12D mutant (Sakamoto et al., BBRC 484.3 (2017), 605-611) or internal compounds with confirmed binding were used as positive controls in the assay plates. Fluorescence intensities were measured on a PheraStar plate reader instrument (BMG Labtech) with excitation at 485 nm and emission at 520 nm.
# Either GraphPad prism or XLfit was used to analyze the data. The IC50 values were derived by fitting the data to a four parameter logistic equation producing a sigmoidal dose-response curve with a variable Hill coefficient. Prism equation: Y=Bottom+(Top−Bottom)/(1+10^((Log IC50−X)*Hill slope)); XLfit equation: Y=(A+((B−A)/(1+((X/C)^D)))) where X is the logarithm of inhibitor concentration and Y is the response.
# [2] = test system: MIA PaCa-2 (KRAS G12C) cells; test: Cellular pERK HTRF assay (KRAS_G12C pERK assay); type: cell-based; conditions: Homo sapiens, cells incubated with compound 4 hours, read-out: G12C_pERK IC50
# Description: MIA PaCa-2 (KRAS G12C; ATCC® CRL-1420), A427 (KRAS G12D; ATCC® HTB53), HPAF-II (KRAS G12D; ATCC® CRL-1997) and NCI-H838 (KRAS WT; ATCC® CRL-5844) cells are purchased from ATCC and maintained in RPMI 1640 media supplemented with 10% FBS (Gibco/Life Technologies). The cells are plated at 5000 cells per well (8 uL) into Greiner 384-well low volume, flat-bottom, tissue culture treated white plates and incubated overnight at 37° C., 5% CO2. The next morning, test compound stock solutions are diluted in media at 3× the final concentration, and 4 uL are added to the cells. The plate is mixed by gentle rotation for 30 seconds (250 rpm) at room temperature. The cells are incubated with the KRAS G12C and G12D compounds for 4 hours or 2 hours respectively at 37° C., 5% CO2.
# 4 uL of 4× lysis buffer with blocking reagent (1:25) (Cisbio) are added to each well and plates are rotated gently (300 rpm) for 30 minutes at room temperature. 4 uL per well of Cisbio anti Phospho-ERK 1/2 d2 is mixed with anti Phospho-ERK 1/2 Cryptate (1:1) are added to each well, mixed by rotation and incubated overnight in the dark at room temperature. Plates are read on the Pherastar plate reader at 665 nm and 620 nm wavelengths. IC50 determination is performed by fitting the curve of inhibitor percent inhibition versus the log of the inhibitor concentration using the GraphPad Prism 7 software.
# Chain of KRAS G12C (P01116 1-188 isoform P01116-2 G12C): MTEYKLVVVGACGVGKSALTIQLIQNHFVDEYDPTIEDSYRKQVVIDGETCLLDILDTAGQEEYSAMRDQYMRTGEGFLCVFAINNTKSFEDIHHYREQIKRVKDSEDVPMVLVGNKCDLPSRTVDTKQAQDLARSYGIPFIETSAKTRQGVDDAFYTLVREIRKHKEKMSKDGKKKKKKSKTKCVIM
SMILES,IC50 [1],IC50 [2]
"C=Cc1ncc2n1CCN(c1nc(OCC3CCCCN3C)nc3c1CCN(c1cccc4cccc(Cl)c14)C3)C2 (centres unmarked) [Example 7, 7-(8-Chloronaphthalen-1-yl)-2-((1-methylpiperidin-2-yl)methoxy)-4-(3-vinyl-5,6-dihydroimidazo[1,5-a]pyrazin-7(8H)-yl)-5,6,7,8-tetrahydropyrido[3,4-d]pyrimidine]",100 to 1000 nM,
"C=Cc1ncc2n1CCN(c1nc(OCCC3CCCN3C)nc3c1CCN(c1cccc4cccc(Cl)c14)C3)C2 (centres unmarked) [Example 8, 7-(8-Chloronaphthalen-1-yl)-2-(2-(1-methylpyrrolidin-2-yl)ethoxy)-4-(3-vinyl-5,6-dihydroimidazo[1,5-a]pyrazin-7(8H)-yl)-5,6,7,8-tetrahydropyrido[3,4-d]pyrimidine]",100 to 1000 nM,
"C=Cc1ncc2n1CCN(c1nc(OC[C@@H]3CCCN3C)nc3c1CCN(c1cc(O)cc4ccccc14)C3)C2 [Example 9, (S)-4-(2-((1-Methylpyrrolidin-2-yl)methoxy)-4-(3-vinyl-5,6-dihydroimidazo[1,5-a]pyrazin-7(8H)-yl)-5,8-dihydropyrido[3,4-d]pyrimidin-7(6H)-yl)naphthalen-2-ol]",100 to 1000 nM,1000 to 5000 nM
"C=Cc1ncc2n1CCN(c1nc(OC[C@@H]3CCCN3Cc3ccccc3)nc3c1CCN(c1cccc4cccc(Cl)c14)C3)C2 [Example 10, (S)-2-((1-Benzylpyrrolidin-2-yl)methoxy)-7-(8-chloronaphthalen-1-yl)-4-(3-vinyl-5,6-dihydroimidazo[1,5-a]pyrazin-7(8H)-yl)-5,6,7,8-tetrahydropyrido[3,4-d]pyrimidine]",100 to 1000 nM,
"C=Cc1ncc2n1CCN(c1nc(OC[C@H]3CCCN3C)nc3c1CCN(c1cc(O)cc4ccccc14)C3)C2 [Example 11, (R)-4-(2-((1-Methylpyrrolidin-2-yl)methoxy)-4-(3-vinyl-5,6-dihydroimidazo[1,5-a]pyrazin-7(8H)-yl)-5,8-dihydropyrido[3,4-d]pyrimidin-7(6H)-yl)naphthalen-2-ol]",100 to 1000 nM,1000 to 5000 nM
"C=Cc1ncc2n1CCN(c1nc(OCC3(C#N)CCCC3)nc3c1CCN(c1cccc4cccc(Cl)c14)C3)C2 [Example 12, 1-(((7-(8-Chloronaphthalen-1-yl)-4-(3-vinyl-5,6-dihydroimidazo[1,5-a]pyrazin-7(8H)-yl)-5,6,7,8-tetrahydropyrido[3,4-d]pyrimidin-2-yl)oxy)methyl)cyclopentane-1-carbonitrile]",1000 to 5000 nM,
"C=Cc1ncc2n1CCN(c1nc(OCCCN3CCOCC3)nc3c1CCN(c1cc(O)cc4ccccc14)C3)C2 [Example 13, 4-(2-(3-Morpholinopropoxy)-4-(3-vinyl-5,6-dihydroimidazo[1,5-a]pyrazin-7(8H)-yl)-5,8-dihydropyrido[3,4-d]pyrimidin-7(6H)-yl)naphthalen-2-ol]",1000 to 5000 nM,
"C=Cc1cnc2n1CCN(c1nc(OC[C@@H]3CCCN3C)nc3c1CCN(c1cccc4cccc(Cl)c14)C3)C2 [Example 14, (S)-7-(8-Chloronaphthalen-1-yl)-2-((1-methylpyrrolidin-2-yl)methoxy)-4-(3-vinyl-5,6-dihydroimidazo[1,2-a]pyrazin-7(8H)-yl)-5,6,7,8-tetrahydropyrido[3,4-d]pyrimidine]",1000 to 5000 nM,
"C=Cc1cnc2n1CCN(c1nc(OCCCN3CCOCC3)nc3c1CCN(c1cccc4cccc(Cl)c14)C3)C2 [Example 15, 4-(3-((7-(8-Chloronaphthalen-1-yl)-4-(3-vinyl-5,6-dihydroimidazo[1,2-a]pyrazin-7(8H)-yl)-5,6,7,8-tetrahydropyrido[3,4-d]pyrimidin-2-yl)oxy)propyl)morpholine]",1000 to 5000 nM,

# More lines, now with the values ahead:
IC50 [1],IC50 [2],SMILES
100 to 1000 nM,1000 to 5000 nM,"C=Cc1ncc2n1CCN(c1nc(OCCCN3CCOCC3)nc3c1CCN(c1cccc4cccc(Cl)c14)C3)C2 [Example 1, 4-(3-((7-(8-Chloronaphthalen-1-yl)-4-(3-vinyl-5,6-dihydroimidazo[1,5-a]pyrazin-7(8H)-yl)-5,6,7,8-tetrahydropyrido[3,4-d]pyrimidin-2-yl)oxy)propyl)morpholine]"
≤ 100 nM,1000 to 5000 nM,"C=Cc1ncc2n1CCN(c1nc(OCCCN3CCOCC3)nc3c1CCN(c1cccc4ccccc14)C3)C2 [Example 2, 4-(3-((7-(Naphthalen-1-yl)-4-(3-vinyl-5,6-dihydroimidazo[1,5-a]pyrazin-7(8H)-yl)-5,6,7,8-tetrahydropyrido[3,4-d]pyrimidin-2-yl)oxy)propyl)morpholine]"
≤ 100 nM,1000 to 5000 nM,"C=Cc1ncc2n1CCN(c1nc(OC[C@@H]3CCCN3C)nc3c1CCN(c1cccc4ccccc14)C3)C2 [Example 3, (S)-2-((1-Methylpyrrolidin-2-yl)methoxy)-7-(naphthalen-1-yl)-4-(3-vinyl-5,6-dihydroimidazo[1,5-a]pyrazin-7(8H)-yl)-5,6,7,8-tetrahydropyrido[3,4-d]pyrimidine]"
100 to 1000 nM,1000 to 5000 nM,"C=Cc1ncc2n1CCN(c1nc(OC[C@@H]3CCCN3C)nc3c1CCN(c1cccc4cccc(Cl)c14)C3)C2 [Example 4, (S)-7-(8-Chloronaphthalen-1-yl)-2-((1-methylpyrrolidin-2-yl)methoxy)-4-(3-vinyl-5,6-dihydroimidazo[1,5-a]pyrazin-7(8H)-yl)-5,6,7,8-tetrahydropyrido[3,4-d]pyrimidine]"
100 to 1000 nM,1000 to 5000 nM,"C=Cc1ncc2n1CCN(c1nc(OCCCN3CCCCC3)nc3c1CCN(c1cccc4cccc(Cl)c14)C3)C2 [Example 5, 7-(8-Chloronaphthalen-1-yl)-2-(3-(piperidin-1-yl)propoxy)-4-(3-vinyl-5,6-dihydroimidazo[1,5-a]pyrazin-7(8H)-yl)-5,6,7,8-tetrahydropyrido[3,4-d]pyrimidine]"
100 to 1000 nM,1000 to 5000 nM,"C=Cc1ncc2n1CCN(c1nc(OCC3CCCN(C)C3)nc3c1CCN(c1cccc4cccc(Cl)c14)C3)C2 (centres unmarked) [Example 6, 7-(8-Chloronaphthalen-1-yl)-2-((1-methylpiperidin-3-yl)methoxy)-4-(3-vinyl-5,6-dihydroimidazo[1,5-a]pyrazin-7(8H)-yl)-5,6,7,8-tetrahydropyrido[3,4-d]pyrimidine]"
